{"source": "patent US20070037882A1", "about": "“Remedy for cerebral neurodegenerative diseases using ppar agonist” (Astellas Pharma Inc., priority 2003, published 2007)", "key": {"SH-SY5Y cells [1]": {"tested_on": "SH-SY5Y cells", "test": "MPP+-induced cellular death model, dead cells by LDH assay", "type": "cell-based, human", "conditions": "for LDH release A490: MPP+ + (3 mM), 24 h", "description": "(§1) SH-SY5Y cells were spread on a 96-well plate (70,000 cell/well in 100 μl DMEM low glucose 10% fetal bovine serum) for overnight culturing, from which the culture medium was removed with an aspirator. Then, DMEM without serum was added at 50 μl/well. […] 2 hours later, DMEM without serum containing 18 mM MPP^+ was added at 20 μl/well. (MPP^+ to a final 3 mM concentration) (For a control, DMEM without serum alone was added.)\n24 hours later, the dead cell count was calculated on the basis of the LDH activity assayed with a cytotoxicity detection kit (Roche). […] The results reveal that the PPARδ agonists are effective on the suppression of MPP^+-induced cellular death."}, "[2]": {"tested_on": "murine MPTP Parkinson's model", "test": "Murine MPTP Parkinson's model, striate body DA and metabolites", "type": "in vivo, mice", "conditions": "for Resumption ratio of content of DA / Resumption ratio of content of DOPAC / Resumption ratio of content of HVA / DA content per wet weight of striate body / DOPAC content per wet weight of striate body / HVA content per wet weight of striate body: MPTP +; for DA content per wet weight of striate body / DOPAC content per wet weight of striate body / HVA content per wet weight of striate body: 4 days after MPTP"}, "SH-SY5Y cells [3]": {"tested_on": "SH-SY5Y cells", "test": "Staurosporine-induced cellular death model, viable cells by MTT assay", "type": "cell-based, human", "conditions": "for MTT assay A490: staurosporine + (150 nM), 24 h", "description": "Cellular death was induced by adding a protein kinase inhibitor staurosporine to a neuroblastoma SH-SY5Y to examine the effect of PPARδ agonists on the suppression of cellular death. SH-SY5Y cells were plated on a 96-well plate (70,000 cell/well in 100 μl DMEM low glucose 10% fetal bovine serum) for overnight culturing, from which the culture medium was removed with an aspirator. Then, DMEM without serum was added at 50 μl/well. […] 2 hours later, DMEM without serum containing 900 nM staurosporine was added at 20 μl/well. (Staurosporine to a final 150 nM concentration) (For a control, DMEM without serum alone was added.) 24 hours later, the viable cell count was calculated from the absorbance at 490 nm, using Celltiter 96 Aqueous one solution cell proliferation assay kit (Promega)."}, "SH-SY5Y cells [4]": {"tested_on": "SH-SY5Y cells", "test": "Staurosporine-induced cellular death model, dead cells by LDH assay", "type": "cell-based, human", "conditions": "staurosporine + (150 nM), 24 h", "description": "SH-SY5Y cells were plated on a 96-well plate (70,000 cell/well in 100 μl DMEM low glucose 10% fetal bovine serum) for overnight culturing, from which the culture medium was removed with an aspirator. Then, DMEM without serum was added at 50 μl/well. […] 2 hours later, DMEM without serum containing 900 nM staurosporine was added at 20 μl/well. (Staurosporine to a final 150 nM concentration) (For a control, DMEM without serum alone was added.) 24 hours later, LDH activity was assayed by measuring the absorbance at 490 nm, using Cytotoxicity detection kit (Roche). […] An apparent correlation is observed with the results of viable cells as determined by the MTT assay in Example 9."}, "SH-SY5Y cells [5]": {"tested_on": "SH-SY5Y cells", "test": "Staurosporine-induced cellular death model, apoptosis by caspase-3/7 assay", "type": "cell-based, human", "conditions": "for Caspase 3/7 activity: staurosporine + (150 nM), 3 h", "description": "as §1, with “900 nM staurosporine” for “18 mM MPP^+”, “(Staurosporine” for “(MPP^+”, “150 nM” for “3 mM”, “added).” for “added.)”\n3 hours later, the caspase-3/7 activity was assayed with Apo-One homogenous Caspase-3/7 assay kit (Promega)."}, "SH-SY5Y cells [6]": {"tested_on": "SH-SY5Y cells", "test": "Thapsigargin-induced cellular death model, viable cells by MTT assay", "type": "cell-based, human", "conditions": "for MTT assay A490: thapsigargin + (100 nM), 24 h", "description": "SH-SY5Y cells were plated on a 96-well plate (70,000 cell/well in 100 μl DMEM low glucose 10% fetal bovine serum) for overnight culturing, from which the culture medium was removed with an aspirator. Then, DMEM without serum was added at 50 μl/well. […] 2 hours later, DMEM without serum containing 600 nM thapsigargin was added at 20 μl/well. (Thapsigargin to a final 100 nM concentration) (For a control, DMEM without serum alone was added.) 24 hours later, the viable cell count was calculated from the absorbance at 490 nm, using Celltiter 96 Aqueous one solution cell proliferaion assay kit (Promega)."}, "SH-SY5Y cells [7]": {"tested_on": "SH-SY5Y cells", "test": "MPP+-induced cellular death model, viable cells by MTT assay", "type": "cell-based, human", "conditions": "for MTT assay A490: MPP+ + (3 mM), 24 h", "description": "as §1, with “added).” for “added.)”\n24 hours later, cell growth activity was assayed by measuring the absorbance at 490 nm, using Celltiter 96 aqueous one solution cell proliferation assay kit (Promega).\nIn the assay system, MPP^+ as an MPTP metabolite was added to a neuroblastoma SH-SY5Y, to inhibit the mitochondrial complex I to cause the generation of active oxygen and the inhibition of ATP synthesis, to induce cellular death. It is said that in the murine MPTP model commonly used as a model of Parkinson's disease, MPTP passing through the blood brain barrier is metabolized into MPP^+, which exerts toxicity specific to murine nigra cell to induce nerve detachment. Therefore, the assay system can be said as an in vitro assay system mimicking the murine MPTP model."}, "SH-SY5Y cells [8]": {"tested_on": "SH-SY5Y cells", "test": "Thapsigargin-induced cellular death model, apoptosis by caspase-3/7 assay", "type": "cell-based, human", "conditions": "for Caspase 3/7 activity: thapsigargin + (100 nM), 3 h"}}, "data": [{"smiles": "CCCc1c(OCCCOc2ccc(OCC(=O)O)cc2)ccc(C(C)=O)c1O", "note": "[L-165041, 4-[3-[2-propyl-3-hydroxy-4-acetyl]phenoxy]propyloxyphenoxy acetic acid]", "values": [{"measurement": "LDH release A490", "setting": "SH-SY5Y cells [1]; compound 0.1 μM", "value": "0.3980 ± 0.0141"}, {"measurement": "LDH release A490", "setting": "SH-SY5Y cells [1]; compound 1 μM", "value": "0.3874 ± 0.0120"}, {"measurement": "LDH release A490", "setting": "SH-SY5Y cells [1]; compound 10 μM", "value": "0.3133 ± 0.0024"}, {"measurement": "LDH release A490", "setting": "SH-SY5Y cells [1]; compound 100 μM", "value": "0.6709 ± 0.0093"}, {"measurement": "cytotoxicity (in words)", "setting": "SH-SY5Y cells [1]; concentration of 100 μM, MPP+ model", "value": "exerted cytotoxicity"}, {"measurement": "Resumption ratio of content of DA", "setting": "[2]; 12 μg/head/day", "value": "0.42 ± 10.20", "unit": "%"}, {"measurement": "Resumption ratio of content of DOPAC", "setting": "[2]; 12 μg/head/day", "value": "−1.45 ± 10.89", "unit": "%"}, {"measurement": "Resumption ratio of content of HVA", "setting": "[2]; 12 μg/head/day", "value": "−4.65 ± 12.88", "unit": "%"}, {"measurement": "DA content per wet weight of striate body", "setting": "[2]; 12 μg/head/day", "value": "5.06 ± 1.08", "unit": "ng/mg tissue"}, {"measurement": "DOPAC content per wet weight of striate body", "setting": "[2]; 12 μg/head/day", "value": "0.28 ± 0.05", "unit": "ng/mg tissues"}, {"measurement": "HVA content per wet weight of striate body", "setting": "[2]; 12 μg/head/day", "value": "0.66 ± 0.08", "unit": "ng/mg tissue"}, {"measurement": "Resumption ratio of content of DA", "setting": "[2]; 120 μg/head/day", "value": "26.42 ± 8.83", "unit": "%"}, {"measurement": "Resumption ratio of content of DOPAC", "setting": "[2]; 120 μg/head/day", "value": "32.22 ± 15.41", "unit": "%"}, {"measurement": "Resumption ratio of content of HVA", "setting": "[2]; 120 μg/head/day", "value": "36.58 ± 16.68", "unit": "%"}, {"measurement": "DA content per wet weight of striate body", "setting": "[2]; 120 μg/head/day", "value": "7.81 ± 0.93", "unit": "ng/mg tissue"}, {"measurement": "DOPAC content per wet weight of striate body", "setting": "[2]; 120 μg/head/day", "value": "0.44 ± 0.07", "unit": "ng/mg tissues"}, {"measurement": "HVA content per wet weight of striate body", "setting": "[2]; 120 μg/head/day", "value": "0.91 ± 0.10", "unit": "ng/mg tissue"}, {"measurement": "action of suppressing the decrease of the contents of DA, DOPAC and HVA (in words)", "setting": "[2]; dose of 12 μg/head/day", "value": "not so greatly observed"}, {"measurement": "action of suppressing the decrease of the contents of DA, DOPAC and HVA (in words)", "setting": "[2]; dose of 120 μg/head/day", "value": "greatly observed"}, {"measurement": "suppression of staurosporine-induced cellular death (in words)", "setting": "SH-SY5Y cells [3]; SH-SY5Y, staurosporine", "value": "suppression of staurosporine-induced cellular death in a concentration-dependent manner"}, {"measurement": "MTT assay A490", "setting": "SH-SY5Y cells [3]; compound 0.1 μM", "value": "0.5523 ± 0.0209"}, {"measurement": "MTT assay A490", "setting": "SH-SY5Y cells [3]; compound 1 μM", "value": "0.5532 ± 0.0056"}, {"measurement": "MTT assay A490", "setting": "SH-SY5Y cells [3]; compound 10 μM", "value": "0.5167 ± 0.0098"}, {"measurement": "LDH release A490", "setting": "SH-SY5Y cells [4]; compound 0.1 μM", "value": "0.5330 ± 0.0298"}, {"measurement": "LDH release A490", "setting": "SH-SY5Y cells [4]; compound 1 μM", "value": "0.5230 ± 0.0160"}, {"measurement": "LDH release A490", "setting": "SH-SY5Y cells [4]; compound 10 μM", "value": "0.5319 ± 0.0267"}, {"measurement": "suppression of caspase-3/7 activity (in words)", "setting": "SH-SY5Y cells [5]; SH-SY5Y, staurosporine", "value": "suppress the activity of caspase-3/7"}, {"measurement": "Caspase 3/7 activity", "setting": "SH-SY5Y cells [5]; compound 0.1 μM", "value": "535404 ± 23301", "unit": "RFLU"}, {"measurement": "Caspase 3/7 activity", "setting": "SH-SY5Y cells [5]; compound 1 μM", "value": "520732 ± 17273", "unit": "RFLU"}, {"measurement": "Caspase 3/7 activity", "setting": "SH-SY5Y cells [5]; compound 10 μM", "value": "483017 ± 27259", "unit": "RFLU"}, {"measurement": "suppression of thapsigargin-induced cellular death (in words)", "setting": "SH-SY5Y cells [6]; SH-SY5Y, thapsigargin", "value": "suppressed cellular death induced by thapsigargin (TG) in a concentration-dependent manner"}, {"measurement": "MTT assay A490", "setting": "SH-SY5Y cells [6]; compound 0.1 μM", "value": "0.2176 ± 0.0036"}, {"measurement": "MTT assay A490", "setting": "SH-SY5Y cells [6]; compound 1 μM", "value": "0.2158 ± 0.0034"}, {"measurement": "MTT assay A490", "setting": "SH-SY5Y cells [6]; compound 10 μM", "value": "0.2436 ± 0.0015"}, {"measurement": "MTT assay A490", "setting": "SH-SY5Y cells [6]; compound 100 μM", "value": "0.4405 ± 0.0065"}, {"measurement": "suppression of MPP+-induced cellular death (in words)", "setting": "SH-SY5Y cells [7]; SH-SY5Y, MPP+", "value": "suppress cellular death induced by MPP^+ in a concentration-dependent manner"}, {"measurement": "MTT assay A490", "setting": "SH-SY5Y cells [7]; compound 0.1 μM", "value": "0.3744 ± 0.0067"}, {"measurement": "MTT assay A490", "setting": "SH-SY5Y cells [7]; compound 1 μM", "value": "0.3935 ± 0.0083"}, {"measurement": "MTT assay A490", "setting": "SH-SY5Y cells [7]; compound 10 μM", "value": "0.4799 ± 0.0078"}, {"measurement": "MTT assay A490", "setting": "SH-SY5Y cells [7]; compound 100 μM", "value": "0.3181 ± 0.0122"}, {"measurement": "suppression of caspase-3/7 activity (in words)", "setting": "SH-SY5Y cells [8]; SH-SY5Y, thapsigargin", "value": "suppress the activity of caspase-3/7"}, {"measurement": "Caspase 3/7 activity", "setting": "SH-SY5Y cells [8]; compound 0.1 μM", "value": "732549 ± 24888", "unit": "RFLU"}, {"measurement": "Caspase 3/7 activity", "setting": "SH-SY5Y cells [8]; compound 1 μM", "value": "652843 ± 8229", "unit": "RFLU"}, {"measurement": "Caspase 3/7 activity", "setting": "SH-SY5Y cells [8]; compound 10 μM", "value": "554233 ± 23703", "unit": "RFLU"}, {"measurement": "Caspase 3/7 activity", "setting": "SH-SY5Y cells [8]; compound 100 μM", "value": "242770 ± 5414", "unit": "RFLU"}]}]}
